US20200078408A1, “GENE THERAPY” (Ospedale San Raffaele S.r.l., priority 2017, published 2020)

Assays:
B-ALL = B-ALL challenge of mice reconstituted with Tie2-vector transduced HSPCs (Example 7); assay type: in vivo, mouse; settings: FIG. 31A
Excerpt: We employed a transplantable model of B-acute lymphoblastic leukaemia (B-ALL) closely mimicking human Philadelphia-like B-ALL (Nucera, S. et al. (2016) Cancer Cell 29: 905-921), which readily induces a protumoral, immunosuppressive microenvironment characterised, for example, by the appearance of myeloid-derived suppressor cells, downregulation of MHC class II genes and upregulation of IL10 and PD1.
Eight weeks post transplant, upon reconstitution of the peripheral blood, animals received the B-ALL that is then followed by frequent blood collection. […]
We then combined the contemporaneous delivery of several immunostimulatory cytokines into the leukaemia microenvironment using the Tie2 vector backbone equipped with different transgene cargo. […] Vector copy number of the single vectors measured by specific quantitative PCR assays was rather low ranging from 0.1 to 0.3 in the reconstituted mice. […]
Furthermore, we evaluated the potential synergy of our gene therapy-based delivery of IFNy with other immunotherapeutic strategies including checkpoint inhibitors anti-CTLA-4 and anti-LAG-3 and the inhibitor of the IDO enzyme, 1-Methyl-Tryptophan (1-MT). […] Vector copy number of the single vectors measured by specific quantitative PCR assays was 0,72 for the Tig126/130a and 0,84 for the controls in the reconstituted mice. […]

[1] = tested on: macrophages, myeloid-derived suppressor cells, CD8+ T cells; test: tumour microenvironment readouts at sacrifice in the B-ALL model (Example 7); assay type: in vivo, mouse; settings: combined with gene therapy-based delivery of IFNγ (Tig126/130a)

## Cn1cc(CC(N)C(=O)O)c2ccccc21 (stereo not shown) [1-MT, 1-Methyltryptophan]
B-ALL; combined with gene therapy-based delivery of IFNγ (Tig126/130a)
  disease progression: reduction of the disease progression
B-ALL; monotherapy
  B-ALL progression: no beneficial effect
[1]; FIG. 31
  MHC class II expression on splenic and bone marrow macrophages: significant increase
[1]; FIG. 31D
  cytotoxic CD8+ T cells in the spleen: increase
